For the series, the system named is three-dimensional cultured corneal epithelium model from human normal corneal epithelium cells (LabCyte CORNEA-MODEL). Description: Irritativeness test using a cornea model (WST-8 assay). It is filed as cell-based. The settings on record: exposure to 50 μL of test substance. How it is done: Prepared as test substances were hydrogels made under the same conditions as in the above preparation examples 3A to 3C (prepared from methanol gel, ethanol gel, and 2-butanol gel, respectively); solution in which 611 mg of NMP was added to 500 mg of PLGA; NMP; and distilled water (negative reference). A standard protocol was followed using a three-dimensional cultured corneal epithelium model from human normal corneal epithelium cells (J-TEC, LabCyte CORNEA-MODEL), and exposure tests were carried out on 50 μL of the test substances. Using a WST-8 assay kit (Dojin Chemical, product code: CK04), following the exposure test, a WST-8 assay was done on the samples, the OD value was measured with a plate reader (TECAN, Infinite 200 Pro), and the relative survival rate (proportion of live cells) was calculated for the negative object (distilled water).

On to `CN1CCCC1=O` [NMP, N-methyl pyrrolidone], for which the “irritativeness toward the cornea” value is on record as “strong”.

The record behind these values is patent US20200171166A1, “GEL COMPOSITION AND METHOD FOR PRODUCING GEL COMPOSITION” (Shimadzu Corporation, priority 2015, published 2020).
